Format in all cases: cell-based, human
Assay [1] deals with GLI2 and GLI3 in MCF-7 cells. Nature of the assay: Ubiquitination of GLI2 and GLI3 (HA-Ub transfection, immunoprecipitation, anti-HA blot). How it is done: (§1) HA-Ubiquitin plasmid (Addgene; catalog no.: plasmid #18712, RRID: Addgene_18712) was transfected into MCF-7 and MDA-MB-231 cells using X-tremeGENE HP DNA Transfection Reagent (Roche; catalog no.: XTGHP-RO). Proteins were extracted from the untreated control cells and cells treated with rolipram for 24 h and were immunoprecipitated using antibodies raised against GLI2 and GLI3. The immunoprecipitation involved overnight incubation of protein and antibodies in Pierce Protein A/G Agarose (Thermo Scientific; catalog no.: 20421) at 4°C. Following immunoprecipitation, the precipitate was subjected to Western blot analysis using anti-HA antibodies (Cell Signaling Technology; catalog no.: 2367; RRID: AB_10691311) to observe ubiquitination of the desired proteins. Cells were cotreated with MG-132 (Sigma–Aldrich; catalog no.: M7449), a proteosomal blocker for ascertaining ubiquitination ([35]).

The subject of assay [2] is GLI2 and GLI3 in MDA-MB-231 cells. The description is as above. As for the experimental part: as §1
The test system of the next assay is MCF-7 cells. Nature of the assay: Flow cytometric analysis of DNA content (PI). The settings on record: MCF-7, IC50 dose, 24 h, vs control. How it is done: (§2) After treating the cells with rolipram for 24 h, cells were stained with PI (BD Pharmingen PI/RNase Staining Buffer; BD Biosciences; catalog no.: BD550825), following fixing of cells with 70% ethanol for 1 h at 4°C and permeabilization with 0.1% Triton X-100 (Sigma–Aldrich; catalog no.: X100). The cells were then analyzed using BD LSRFortessa flow cytometer (RRID: SCR_019600), and the data were analyzed using BD FACSDiva 9.0 software ([30]) (RRID: SCR_001456).

For a further assay, the system named is MDA-MB-231 cells. As to the kind of experiment: Flow cytometric analysis of DNA content (PI). The settings on record: MDA-MB-231, IC50 dose, 24 h, vs control. As for the experimental part:
as §2

For assay [3], the system named is intracellular cAMP in MCF-7 cells. Nature of the assay: cAMP assay (ELISA-based kit), intracellular cAMP. The note with it: 24 h, untreated control 14.1 pmol/ml. As for the experimental part:
(§3) To determine the intracellular level of cAMP, a […] ELISA-based cAMP assay kit was used, which relies on preparation of a standard curve for cAMP (pmol/ml) and denoting all the experimental values from the standard curve, and finally expressing as mean values with standard errors of triplicate samples per treatment group. The assay kit was obtained from Cayman Chemicals (item no.: 581001), and the assay was performed following the manufacturer’s protocol after washing the cells with 1X PBS (composition: 137 mM NaCl, 2.7 mM KCl, 10 mM Na2HPO4, and 1.8 mM KH2PO4) and treating with 0.1 M HCl for 20 min and sonicating the cells for lysis. In brief, the cell lysate was added to the 96-well plate precoated with mouse monoclonal anti-rabbit IgG and which also contained cAMP–acetylcholinesterase (cAMP tracer) that competes with the free cAMP in the cell lysate to bind to the cAMP-specific rabbit antibody. Following several washes, the absorbance of the color generated because of addition of acetylcholinesterase substrate is measured at 412 nm by Bio-Rad iMark Microplate Reader (RRID: SCR_023799), which is inversely proportional to the amount of free cAMP present in the cell lysate ([29]).
Background: cAMP levels reflect the balance of adenylyl cyclase and phosphodiesterase activity.

Assay [4] relates to intracellular cAMP in MDA-MB-231 cells. As to the kind of experiment: cAMP assay (ELISA-based kit), intracellular cAMP. The note with it: 24 h, untreated 12.55 pmol/ml. How it is done:
as §3

For the compound `COc1ccc(C2CNC(=O)C2)cc1OC1CCCC1` (stereo not shown) [rolipram, Rolipram], the “ubiquitination of GLI2 and GLI3” value is “significant ubiquitination” in assay [1] (MCF-7, IC50 dose, 6 h to 24 h); “not able to induce ubiquitination” in assay [1] (MCF-7, in the presence of H89); “ubiquitination of both proteins was also observed” in assay [2] (MDA-MB-231, IC50 dose); “not able to induce ubiquitination” in assay [2] (MDA-MB-231, in the presence of H89). Further, the G0/G1 cell population result in the assay with MCF-7 cells and in the assay with MDA-MB-231 cells was “significantly increased” each time. Besides, the “intracellular cAMP level” value is 43.12 pmol/mL in assay [3] (MCF-7, IC50 dose); 24.02 pmol/mL in assay [3] (MCF-7, half IC50 dose); 37.41 pmol/mL in assay [4] (MDA-MB-231, IC50 dose); 28.35 pmol/mL in assay [4] (MDA-MB-231, half IC50 dose).

The values above are taken from paper PMC11879692, “PDE4 inhibitor rolipram represses hedgehog signaling via ubiquitin-mediated proteolysis of GLI transcription factors to regress breast cancer” (The Journal of Biological Chemistry, 2025).
